Experimental data reported in patent publication US20210347709A1, “RADIOFLUORINATED GPC3-BINDING PEPTIDES FOR PET IMAGING OF HEPATOCELLULAR CARCINOMA” (University of Southern California, priority 2020, published 2021).

What was measured:
GPC3 = molecular target: T1, GPC3 (Homo sapiens, UniProt P51654); test: Binding assay by surface plasmon resonance (SPR); conditions: GPC3 protein immobilized on 3D Dextran chip
T1 construct: purchased Novoprotein, China
Description: Binding Assay. The binding affinity of the GP2076 or GP2633 peptide for GPC3 was determined using surface plasmon resonance (SPR) measurements (PlexArray HT A100, Plexera, USA). In brief, after the GPC3 protein (Novoprotein, China) was immobilized on a 3D Dextran chip, the GP2076 or GP2633 peptide flowed at increasing concentrations (400 nM and 800 nM). The results were analyzed by PlexeraDE software.

[1] = In vitro biocompatibility (cell counting Kit-8 cell viability); type: cell-based; conditions: human, HepG2 cells, all concentrations 120 to 840 μg/ml
Description: In Vitro Biocompatibility. A colorimetric assay was utilized to determine cell viability after treating GPC3 positive HepG2 cells with the GP2076 or GP2633 peptide. The assay was carried out according to the instruction of the manufacturer. In brief, HepG2 cells were seeded at a density of 1×10^4 cells/well in a 96-well plate. After the incubation of the GP2076 or GP2633 peptide at various concentrations (0, 120, 240, 360, 480, 600, 720, and 840 μg/ml) with HepG2 cells for 24 h, the HepG2 cells were examined using the cell counting Kit-8 (KeyGen Biotech, Nanjing, China). The absorbance at 450 nm of all the wells in the 96-well microplate was recorded on a microplate reader (BIOTEK ELX800, USA). The experiment was performed in quadruplicate.

T1 sequence (P51654 25-554): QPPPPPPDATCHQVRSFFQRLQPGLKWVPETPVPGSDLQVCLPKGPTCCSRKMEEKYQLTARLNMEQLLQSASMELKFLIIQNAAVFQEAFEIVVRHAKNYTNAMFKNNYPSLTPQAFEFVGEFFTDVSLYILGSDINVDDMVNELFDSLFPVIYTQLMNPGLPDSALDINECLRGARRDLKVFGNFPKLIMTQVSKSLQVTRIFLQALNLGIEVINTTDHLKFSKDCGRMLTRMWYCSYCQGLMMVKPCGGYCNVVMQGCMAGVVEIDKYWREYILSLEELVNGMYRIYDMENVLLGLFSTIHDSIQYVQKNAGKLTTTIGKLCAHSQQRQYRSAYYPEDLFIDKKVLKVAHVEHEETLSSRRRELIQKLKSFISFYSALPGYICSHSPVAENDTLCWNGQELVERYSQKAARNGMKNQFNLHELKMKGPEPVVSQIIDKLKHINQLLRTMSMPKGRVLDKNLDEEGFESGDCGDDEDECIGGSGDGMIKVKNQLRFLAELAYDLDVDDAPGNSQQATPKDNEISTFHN

Row | Kd (GPC3) [nM] | SMILES | viability at 24 h [1] [%]
1 | 101 | CC(C)C[C@H](NC(=O)[C@H](CCCNC(=N)N)NC(=S)Nc1ccc(CC2CN(CC(=O)O)CCN(CC(=O)O)CCN2CC(=O)O)cc1)C(=O)N[C@@H](CC(N)=O)C(=O)N[C@H](C(=O)NCC(=O)NCC(=O)N[C@H](C(=O)N[C@@H](Cc1ccc(O)cc1)C(=O)N[C@@H](Cc1ccccc1)C(=O)N[C@@H](CC(C)C)C(=O)N[C@H](C(=O)N[C@H](C(=O)N[C@@H](CCCNC(=N)N)C(=O)N[C@@H](CCC(N)=O)C(=O)O)[C@@H](C)O)[C@@H](C)O)[C@@H](C)O)C(C)C (stereo partly shown) [GP2076] | > 90
2 | 63.3 | CC(C)C[C@H](NC(=O)[C@H](CCCNC(=N)N)NC(=O)[C@H](CC(N)=O)NC(=O)[C@H](CC(=O)O)NC(=O)[C@H](CCCNC(=N)N)NC(=O)CNC(=O)CNC(=O)CNC(=S)Nc1ccc(CC2CN(CC(=O)O)CCN(CC(=O)O)CCN2CC(=O)O)cc1)C(=O)N[C@@H](CC(N)=O)C(=O)N[C@H](C(=O)NCC(=O)NCC(=O)N[C@H](C(=O)N[C@@H](Cc1ccc(O)cc1)C(=O)N[C@@H](Cc1ccccc1)C(=O)N[C@@H](CC(C)C)C(=O)N[C@H](C(=O)N[C@H](C(=O)N[C@@H](CCCNC(=N)N)C(=O)N[C@@H](CCC(N)=O)C(=O)O)[C@@H](C)O)[C@@H](C)O)[C@@H](C)O)C(C)C (stereo partly shown) [GP2633] | > 90
